# Assay results: ChEMBL document CHEMBL5608113, “Targeting of CAF-induced therapy resistance in CRC organoid-stroma co-cultures” (2024)
# What was measured:
# Format in all cases: functional, Homo sapiens
# Details in all cases: Homo sapiens, read-out: Cell Viability; for viability at 10 µM: Concentration 10 uM; for viability at 1 µM: Concentration 1 uM
# [1] = tested on: Colon cancer organoid; assay: Targeting of F14 CAF-induced therapy resistance in O23 CRC organoid-stroma co-culture. Cell viability is reported with SN-38.
# [2] = tested on: Colon cancer organoid; assay: Targeting of F14 CAF-induced therapy resistance in O23 CRC organoid-stroma co-culture. Cell viability is reported with Gefitinib.
# [3] = tested on: Colon cancer organoid; assay: Targeting of F14 CAF-induced therapy resistance in O14 CRC organoid-stroma co-culture. Cell viability is reported without Gefitinib.
# [4] = tested on: Colon cancer organoid; assay: Targeting of F14 CAF-induced therapy resistance in O14 CRC organoid-stroma co-culture. Cell viability is reported with Gefitinib.
# [5] = tested on: Colon cancer organoid; assay: Targeting of F14 CAF-induced therapy resistance in O23 CRC organoid-stroma co-culture. Cell viability is reported without Gefitinib.
SMILES,viability at 10 µM [1] [%],viability at 10 µM [2] [%],viability at 10 µM [3] [%],viability at 10 µM [4] [%],viability at 10 µM [5] [%],viability at 1 µM [1] [%],viability at 1 µM [2] [%],viability at 1 µM [3] [%],viability at 1 µM [4] [%],viability at 1 µM [5] [%]
COc1cc2c(cc1-c1c(C)noc1C)ncc1[nH]c(=O)n([C@H](C)c3ccccn3)c12,91.5,78.1,30.2,9.93,143,–,–,–,–,–
Nc1nc(NCc2ccccc2)nc(-c2ccccc2CO)n1 [Ogerin],106,71.3,123,26.8,222,–,–,–,–,–
C[C@H](c1ccc(F)cc1)N(Cc1ccc(Cl)c(C(=O)O)c1)C(=O)c1cnc2ccccc2c1 [PF-05257137],93.8,41.2,84,51.5,81.5,–,–,–,–,–
CCC(=O)N1CCOc2c(cc(-c3ccc(OC)c(OC)c3)cc2OCC2CCCN(C)C2)C1 (stereo not given),96.1,60.4,102,74.7,119,–,–,–,–,–
CO[C@@H](C)c1c(Nc2ccc([C@H](N(C)C(=O)C3CCS(=O)(=O)CC3)C(F)(F)F)cc2)cnc2cc(Cl)nn12 [NVS-MALT1],89.1,60.9,106,36.8,226,–,–,–,–,–
Cc1nccc(COC(=O)N2C[C@@H]3[C@@H](CNC(=O)c4ccc5[nH]nnc5c4)[C@@H]3C2)n1 [BI 3017],76,38.3,7.82,7.21,161,–,–,–,–,–
O=C(NCc1ncc(C(F)(F)F)cc1Cl)c1ccc2c(c1)C1(CCS(=O)(=O)CC1)[C@@H](C1CC1)N2S(=O)(=O)c1ccc(F)cc1 [BAY-786],106,61.5,115,53,138,–,–,–,–,–
Cc1c[nH]c2nccc(Oc3c(F)cc(Nc4cc(Cl)nc(N)n4)cc3F)c12 [BAY-549],–,–,–,–,–,74.7,62.9,96.4,30.6,124
Nc1c(C(=O)NCc2ccc(C(=O)NCCCC3CCCCC3)cc2)cnn1-c1ccccc1 [SR-318],–,–,–,–,–,77.6,58.8,85,41.3,166
O=C(Nc1cccnn1)N1CC(C/C=C/c2cncc(Oc3ccc(C(F)(F)F)cn3)n2)C1,83.6,50.3,93.5,55.5,132,–,–,–,–,–
CCCCN(Cc1ccccc1)C(=O)c1ccc(S(=O)(=O)Nc2ccccc2)cc1,63.6,52.2,80.8,48.8,125,–,–,–,–,–
CCN(C(=O)CO)[C@H]1CN(/C(=N\C#N)Nc2cccc(OC(F)F)c2)N=C1c1ccc(Cl)c(Cl)c1,115,54.9,125,62.2,84,–,–,–,–,–
CN1CCN(c2cnc3c(C4CCN(C(=O)c5ccc(OC(F)(F)F)cc5N)CC4)ncnc3c2)CC1 [BAY-885],78,59.7,114,21.7,115,–,–,–,–,–
O=C(O)c1ccc(-c2c[nH]c3ncc(-c4ccccc4)cc23)cc1C1CCCC1 [GSK-650394],82.6,93.5,104,65,136,–,–,–,–,–
CC(C)(O)[C@H](F)CN1Cc2cc(NC(=O)c3cnn4cccnc34)c(N3CCOCC3)cc2C1=O,51.5,38.7,129,23.3,85.8,–,–,–,–,–
O=C1CCc2cc(Nc3cc(OC4CCOCC4)c([N+](=O)[O-])cc3Cl)ccc2N1,60.5,57.9,112,75.9,117,–,–,–,–,–
O=C(NCCCN1CCOC1=O)c1cnc(NCc2cc(Br)ccc2Br)nc1NC1CCCC1,61.8,55.2,126,51.8,118,–,–,–,–,–
Cc1cnc(-c2cc(Cl)ccc2F)cc1-n1c(=O)n(CC(N)=O)c2cnccc21 [TP-008],94,43.8,114,43.1,147,–,–,–,–,–
CC1(C)C(N)=Nc2cc(OCCCN3Cc4ccc(OCCc5cn(CC(=O)N6CCC(CCN7CCCC7)CC6)nn5)cc4C3)c(OCC3CC3)cc21,7.1,9.03,111,68.9,11.8,–,–,–,–,–
CCOC(=O)c1cc2cc(-c3cc(C(=O)NCc4ccc(C(=O)O)cc4)nn3C)ccc2[nH]1 [BI 4394],–,–,–,–,–,83.8,77.1,95.7,59.3,148
CC1=C(C#N)C(c2ccc3[nH]nc(C)c3c2)C(C#N)=C(C)N1 [BAY-474],81.4,22.9,90.1,7.78,115,–,–,–,–,–
CC(=O)Nc1c(F)cc(C(=O)N[C@H]2CC[C@H](O)CC2)cc1O[C@@H](C)c1ccccc1 [GSK046],48.8,55.8,121,25.9,100,–,–,–,–,–
c1ccc(N2CCN(Cc3nc4ccccc4[nH]3)CC2)nc1,106,66.8,134,57.8,163,–,–,–,–,–
CNC(=O)c1ccccc1Nc1cc(Nc2ccc(N3CCOCC3)cc2OC)ncc1C(F)(F)F [VS-4718],19.3,4.5,25.2,5.44,22.4,–,–,–,–,–
Clc1cc2c(NC3CCCC3)nnc(-c3ccncc3)c2cc1Cl,114,72.9,91.2,65.8,142,–,–,–,–,–
COc1cccc(CNC(=O)c2nc3scc(CN(C)Cc4ccccc4)c3c(=O)[nH]2)c1 [T-26f],67.3,45.7,112,63.8,98.9,–,–,–,–,–
O=C(NCc1ncc(C(F)(F)F)cc1Cl)c1ccc2c(c1)C1(CCS(=O)(=O)CC1)[C@H](C1CC1)N2S(=O)(=O)c1ccc(F)cc1 [BAY-784],–,–,–,–,–,127,74.1,129,55.8,157
CCCOc1ccn2c(C(C)=O)cc(-c3cccc(OC)c3)c2c1,92.8,74.1,113,64.8,112,–,–,–,–,–
COc1cc(N[C@@H]2CCCC[C@]2(O)C(F)(F)F)ccc1F [BAY-9897],–,–,–,–,–,78.5,66.7,86.4,40.2,81.6
